According to patent US6395723B2, “Method of providing coginition enhancement with 5α-pregnan-3β-ol-20-one sulfate” (Wyeth, priority 1997, dated 2002):
Counter-ions that a name gives are not always drawn.

Key:
Format in all cases: cell-based
[1] = system: potassium channel currents; experiment: Whole cell recording of potassium currents from cultured hippocampal neurons; settings: 2 μM, p=0.0006
Procedure: (§1) The neuroprotective and cognition enhancing effects of the compounds of this invention were evaluated in an in vitro standard pharmacological test procedure which measured the effects of 5α-pregnan-3β-ol-20-one 3-sulfate ester sodium salt, as a representative compound of this invention, on calcium and potassium channel currents. Briefly, the following procedure was used.
(§2) Whole cell recording techniques were used to record calcium and potassium currents from cultured hippocampal neurons. The compounds to be evaluated were made fresh each day in a 400 μM ethanol stock solution. The test compounds were diluted in saline to obtain a final concentration of 2 μM. The amplitude of calcium or potassium currents in control, test compound, and washout solutions was measured from at least 10 current traces for each condition. To compensate for rundown of the calcium current with time, control and washout currents were averaged. The current amplitude with drug was divided by the averaged control and washout current to determine the percent change. The means, standard deviations and errors for each test compound were calculated and significance from control was determined using the paired T-Test.

progesterone receptors = target: T1, progesterone receptors (Homo sapiens, UniProt P06401); experiment: Stimulation of alkaline phosphatase enzyme activity in T47D cells (progestational activity); settings: for concentrations required for activity (alkaline phosphatase induction): T47D cells, reference progestins
T1 construct: endogenous in cells; host or cells: T47D human breast cancer cells
T1 sequence (P06401 1-933): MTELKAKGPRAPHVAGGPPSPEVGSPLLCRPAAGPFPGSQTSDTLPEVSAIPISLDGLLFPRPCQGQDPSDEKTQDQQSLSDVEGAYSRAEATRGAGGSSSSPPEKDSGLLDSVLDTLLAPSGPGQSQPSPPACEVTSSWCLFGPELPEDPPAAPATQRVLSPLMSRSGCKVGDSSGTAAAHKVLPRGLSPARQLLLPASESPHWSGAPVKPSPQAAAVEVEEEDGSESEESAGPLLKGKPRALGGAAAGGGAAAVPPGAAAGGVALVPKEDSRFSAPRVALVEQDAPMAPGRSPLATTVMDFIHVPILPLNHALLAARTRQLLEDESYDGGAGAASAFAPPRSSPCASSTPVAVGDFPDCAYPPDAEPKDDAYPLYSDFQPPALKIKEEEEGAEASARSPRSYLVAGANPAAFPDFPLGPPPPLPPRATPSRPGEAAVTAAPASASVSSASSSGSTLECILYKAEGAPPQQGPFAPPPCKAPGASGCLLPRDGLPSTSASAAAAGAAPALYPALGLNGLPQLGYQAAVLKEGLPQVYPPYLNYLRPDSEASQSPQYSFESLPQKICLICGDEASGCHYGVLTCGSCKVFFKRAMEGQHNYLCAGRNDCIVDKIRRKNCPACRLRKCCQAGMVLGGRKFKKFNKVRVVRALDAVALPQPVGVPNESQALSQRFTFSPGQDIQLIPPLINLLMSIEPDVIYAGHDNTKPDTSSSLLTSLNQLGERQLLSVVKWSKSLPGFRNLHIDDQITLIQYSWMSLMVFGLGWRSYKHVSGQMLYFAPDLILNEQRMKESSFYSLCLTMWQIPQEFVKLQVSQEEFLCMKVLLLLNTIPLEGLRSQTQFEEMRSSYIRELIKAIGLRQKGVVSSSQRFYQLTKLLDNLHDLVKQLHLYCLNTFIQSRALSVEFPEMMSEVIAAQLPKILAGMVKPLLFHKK
Text: In this test procedure, the progestational activity of a compound is quantified based on its stimulation of alkaline phosphatase enzyme activity in T47D cells, a human breast cancer cell line which expresses high levels of progesterone receptors. This is a well established test procedure in which both the progestin receptors and the response stimulated by activated progestin receptors are endogenous to the cells. Cells are pre-conditioned in low serum medium for one day and then treated with test compounds.

calcium channel currents = experiment: Whole cell recording of calcium currents from cultured hippocampal neurons; settings: 2 μM, p=0.044
Procedure: as §1, §2

CC(O)C1CCC2C3CCC4CC(O)CCC4(C)C3CCC12C (stereo not drawn) [5α-Pregnan-3β,20β-diol]
increase of potassium channel currents versus control [1]: 21.76±2.40%

CC(=O)[C@H]1CC[C@H]2[C@@H]3CC[C@H]4C[C@@H](OS(=O)(=O)O)CC[C@]4(C)[C@H]3CC[C@]12C [5α-pregnan-3β-ol-20-one 3-sulfate ester sodium salt]
IC50 (progesterone receptors): 5 µM | decrease of calcium channel currents versus control (calcium channel currents): 4.64±1.64%

CC(=O)O[C@]1(C(C)=O)CC[C@H]2[C@@H]3C[C@H](C)C4=CC(=O)CC[C@]4(C)[C@H]3CC[C@@]21C [medroxyprogesterone acetate]
concentrations required for activity (alkaline phosphatase induction) (progesterone receptors): low nanomolar

CC(=O)[C@H]1CC[C@H]2[C@@H]3CCC4=CC(=O)CC[C@]4(C)[C@H]3CC[C@]12C [progesterone]
concentrations required for activity (alkaline phosphatase induction) (progesterone receptors): low nanomolar
